Test [1] concerns the target Recombinant ROCK2 (amino acids 1-552) (Homo sapiens (Human), UniProt O75116). In words: Z′-Lyte kinase assay, ROCK2. Format: biochemical. The note with it: for inhibition at 1 µM: 1 μM compound, read-out: ROCK2 % inh. @ [conc]. The gist of the method:
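IC50s derive from nonlinear curve fits over a 9-point, 2-fold dilution series, with single-point inhibition at 1 μM expressed relative to DMSO. Activity of truncated human ROCK1 (residues 1-535) and ROCK2 (residues 1-552) measured with the Z′-Lyte kinase format.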

The test system of test [2] is ppMlc (T18/S19) levels in A7R5 cells. Nature of the test: A7R5 in-cell ELISA (pMLC). The class given is cell-based, Rat. As to conditions: Rattus norvegicus, A7R5, A7R5 cells; for inhibition at 10 µM: 10 μM compound; for inhibition at 10 µM / inhibition at 1 µM: read-out: pMLC % inh A7R5 @ [conc]; for IC50: ppMlc (T18/S19); for inhibition at 1 µM: 1 μM compound. In short, it runs like this: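 Cellular IC50 came from a nonlinear regression fit of ppMlc (T18/S19) signal, read by colorimetric in-cell ELISA on fixed cells. Rat A7R5 aortic smooth muscle cells had been exposed for 90 min to compounds in 9-point 2-fold serial dilution, 24 h after seeding.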

Setting [3] is: 9 points 2-fold serial dilution.

The structures appear in SMILES notation. Read-outs that look alike come from different tables or passages of the source.

Sequence of Recombinant ROCK2 (amino acids 1-552) (O75116 1-552): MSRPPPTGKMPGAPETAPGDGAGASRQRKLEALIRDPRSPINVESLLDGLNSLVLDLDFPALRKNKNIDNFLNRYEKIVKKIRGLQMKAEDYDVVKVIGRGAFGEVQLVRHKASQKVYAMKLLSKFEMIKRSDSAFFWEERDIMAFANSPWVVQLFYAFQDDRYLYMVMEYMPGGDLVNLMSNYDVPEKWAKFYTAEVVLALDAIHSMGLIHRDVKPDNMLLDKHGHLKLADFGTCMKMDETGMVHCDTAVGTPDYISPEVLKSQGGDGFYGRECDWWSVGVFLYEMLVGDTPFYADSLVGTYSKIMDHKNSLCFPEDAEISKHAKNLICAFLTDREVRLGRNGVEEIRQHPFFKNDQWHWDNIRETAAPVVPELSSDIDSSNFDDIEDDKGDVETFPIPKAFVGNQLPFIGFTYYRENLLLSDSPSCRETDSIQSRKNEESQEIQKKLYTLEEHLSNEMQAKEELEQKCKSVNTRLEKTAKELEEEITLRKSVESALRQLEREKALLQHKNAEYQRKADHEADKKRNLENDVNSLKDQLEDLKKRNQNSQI

With `CCC1CCN(c2nc(C)cc(Nc3ccc4[nH]ncc4c3)n2)CCN1` (stereo not shown) [Example 109, N-(2-(5-ethyl-1,4-diazepan-1-yl)-6-methylpyrimidin-4-yl)-1H-indazol-5-amine], the inhibition at 1 µM in test [1] is 68.4%. For the same molecule, in test [2], the inhibition at 10 µM was 52.3% and the half-inhibitory concentration (IC50) turned out to be 1880 nM.

On to `Cc1cc(Nc2ccc3[nH]ncc3c2)nc(N2CCCNC(C(C)C)C2)n1` (stereo not shown) [Example 110, N-(2-(3-isopropyl-1,4-diazepan-1-yl)-6-methylpyrimidin-4-yl)-1H-indazol-5-amine], for which, in test [1], the inhibition at 1 µM came out at 67.5%. Also, in test [2], the inhibition at 10 µM was 50.9% and the 50% inhibitory concentration (IC50) amounted to 1390 nM.

For `Cc1cc(Nc2ccc3[nH]ncc3c2)nc(N2CCNC(C(C)C)CC2)n1` (stereo not shown) [Example 111, N-(2-(5-isopropyl-1,4-diazepan-1-yl)-6-methylpyrimidin-4-yl)-1H-indazol-5-amine], the inhibition at 1 µM in test [1] was determined as 31.8%. In addition, the inhibition at 10 µM in test [2] was 44%.

Consider `Cc1cc(Nc2ccc3[nH]ncc3c2)nc(N2CC(C)NC(C)C2)n1` (stereo not shown) [Example 113, N-(2-(3,5-dimethylpiperazin-1-yl)-6-methylpyrimidin-4-yl)-1H-indazol-5-amine], for which, in test [1], the inhibition at 1 µM worked out at 58.1%. In test [2], the inhibition at 10 µM came out at 47.5% and the IC50 came out at 2880 nM.

Take `CCC1CN(c2nc(C)cc(Nc3ccc4[nH]ncc4c3)n2)CCN1` (stereo not shown) [Example 114, N-(2-(3-ethylpiperazin-1-yl)-6-methylpyrimidin-4-yl)-1H-indazol-5-amine]: in test [1], the inhibition at 1 µM came to 82%. Moreover, in test [2], the inhibition at 10 µM is 48.7%.

For `Cc1cc(Nc2ccc3[nH]ncc3c2)nc(N2CCNC(C(C)C)C2)n1` (stereo not shown) [Example 115, N-(2-(3-isopropylpiperazin-1-yl)-6-methylpyrimidin-4-yl)-1H-indazol-5-amine], in test [1], the inhibition at 1 µM stood at 64.2%. Also, in test [2], the inhibition at 10 µM is 48.2%.

As to `Cc1cc(Nc2ccc3[nH]ncc3c2)nc(N2CCNC(C)CC2)n1` (stereo not shown) [Example 116, N-(6-methyl-2-(5-methyl-1,4-diazepan-1-yl)pyrimidin-4-yl)-1H-indazol-5-amine], the inhibition at 1 µM in test [1] worked out at 81.9%. For the same molecule, in test [2], the inhibition at 10 µM turned out to be 51.6% and the concentration for half-maximal inhibition (IC50) is 1020 nM.

As for `Cc1cc(Nc2ccc3[nH]ncc3c2)nc(N2CC3CCC(C2)N3)n1` [Example 119, N-(2-(3,8-diazabicyclo[3.2.1]octan-3-yl)-6-methylpyrimidin-4-yl)-1H-indazol-5-amine], the inhibition at 1 µM in test [1] turned out to be 90.1%; in test [2] it was 17.7%.

`Cc1cc(Nc2ccc3[nH]ncc3c2)nc(N2CC3CC(C2)N3)n1` [Example 120, N-(2-(3,6-diazabicyclo[3.1.1]heptan-3-yl)-6-methylpyrimidin-4-yl)-1H-indazol-5-amine]: the inhibition at 1 µM amounted to 93.1% in test [1] and 23.4% in test [2].

Turning to `Cc1cc(Nc2ccc3[nH]ncc3c2)nc(N2CC3CNCC(C3)C2)n1` [Example 130, N-(2-(3,7-diazabicyclo[3.3.1]nonan-3-yl)-6-methylpyrimidin-4-yl)-1H-indazol-5-amine], the inhibition at 1 µM stood at 93.4% in test [1] and 27.7% in test [2].

Turning to `Cc1cc(Nc2ccc3[nH]ncc3c2)nc(N2CCC3NCCC3C2)n1` (stereo not shown) [Example 131, N-(6-methyl-2-(octahydro-5H-pyrrolo[3,2-c]pyridin-5-yl)pyrimidin-4-yl)-1H-indazol-5-amine], the values for the inhibition at 1 µM in test [1] and in test [2] were 74.1% and 12.7%, respectively.

Consider `Cc1cc(Nc2ccc3[nH]ncc3c2)nc(N2CCC3CNCC3CC2)n1` (stereo not shown) [Example 132, N-(6-methyl-2-(octahydropyrrolo[3,4-d]azepin-6(1H)-yl)pyrimidin-4-yl)-1H-indazol-5-amine], for which the IC50 in test [1] was found to be 245 nM. Moreover, the inhibition at 1 µM is 81.8% in test [1] and 19.6% in test [2].

For the molecule `Cc1cc(Nc2ccc3[nH]ncc3c2)nc(N2CCN3CCNCC3C2)n1` (stereo not shown) [Example 133, N-(6-methyl-2-(octahydro-2H-pyrazino[1,2-a]pyrazin-2-yl)pyrimidin-4-yl)-1H-indazol-5-amine], the inhibition at 1 µM in test [1] is 15.2%; in test [2], 3.1%.

Take `Cc1cc(Nc2ccc3[nH]ncc3c2)nc(N2CC3CNC3C2)n1` (stereo not shown) [Example 134, N-(2-(3,6-diazabicyclo[3.2.0]heptan-3-yl)-6-methylpyrimidin-4-yl)-1H-indazol-5-amine]: the IC50 in test [1] is 11 nM. In test [2], the inhibition at 1 µM was found to be 29.9%.

With `Cc1cc(Nc2ccc3[nH]ncc3c2)nc(N2CC(C3CCNCC3)c3ccccc32)n1` (stereo not shown) [Example 137, N-(6-methyl-2-(3-(piperidin-4-yl)indolin-1-yl)pyrimidin-4-yl)-1H-indazol-5-amine], the values for the inhibition at 1 µM in test [1] and in test [2] were 21.6% and 24.4%, respectively.

For `Cc1cc(Nc2ccc3[nH]ncc3c2)nc(N2CC3(CCNCC3)c3ccccc32)n1` [Example 138, N-(6-methyl-2-(spiro[indoline-3,4′-piperidin]-1-yl)pyrimidin-4-yl)-1H-indazol-5-amine], the inhibition at 1 µM was determined as 9.1% in test [1] and 15.2% in test [2].

Take `CC1CN(c2ncc(F)c(Nc3ccc4[nH]ncc4c3)n2)CCN1` (stereo not shown) [Example 140, N-(5-fluoro-2-(3-methylpiperazin-1-yl)pyrimidin-4-yl)-1H-indazol-5-amine]: the inhibition at 1 µM in test [1] was determined as 88%. In addition, in test [2], the inhibition at 10 µM amounted to 63.5% and the IC50 was found to be 734 nM.

As for `CCC1CNCCN1c1ncc(F)c(Nc2ccc3[nH]ncc3c2)n1` (stereo not shown) [Example 143, N-(2-(2-ethylpiperazin-1-yl)-5-fluoropyrimidin-4-yl)-1H-indazol-5-amine], in test [1], the inhibition at 1 µM came to 59.3%. Besides, in test [2], the inhibition at 10 µM is 49.8% and the 50% inhibitory concentration (IC50) was 2150 nM.

Turning to `CCC1CCN(c2ncc(F)c(Nc3ccc4[nH]ncc4c3)n2)CCN1` (stereo not shown) [Example 146, N-(2-(5-ethyl-1,4-diazepan-1-yl)-5-fluoropyrimidin-4-yl)-1H-indazol-5-amine], the inhibition at 1 µM in test [1] was 71.8%. Moreover, in test [2], the inhibition at 10 µM worked out at 50.2% and the IC50 stood at 2060 nM.

Consider `CC(C)C1CN(c2ncc(F)c(Nc3ccc4[nH]ncc4c3)n2)CCN1` (stereo not shown) [Example 147, N-(5-fluoro-2-(3-isopropylpiperazin-1-yl)pyrimidin-4-yl)-1H-indazol-5-amine], for which, in test [1], the inhibition at 1 µM stood at 37.6%. Besides, in test [2], the inhibition at 10 µM worked out at 47.8%.

Turning to `CCC1CN(c2ncc(F)c(Nc3ccc4[nH]ncc4c3)n2)CCCN1` (stereo not shown) [Example 148, N-(2-(3-ethyl-1,4-diazepan-1-yl)-5-fluoropyrimidin-4-yl)-1H-indazol-5-amine], the inhibition at 1 µM in test [1] came out at 55.1%. Moreover, in test [2], the inhibition at 10 µM amounted to 46%.

Regarding `CCC1CN(c2ncc(F)c(Nc3ccc4[nH]ncc4c3)n2)CCN1` (stereo not shown) [Example 149, N-(2-(3-ethylpiperazin-1-yl)-5-fluoropyrimidin-4-yl)-1H-indazol-5-amine], the inhibition at 1 µM in test [1] came out at 71.4%. The inhibition at 10 µM in test [2] turned out to be 49.4%.

For `CC1CN(c2ncc(F)c(Nc3ccc4[nH]ncc4c3)n2)CC(C)N1` (stereo not shown) [Example 150, N-(2-(3,5-dimethylpiperazin-1-yl)-5-fluoropyrimidin-4-yl)-1H-indazol-5-amine], the inhibition at 1 µM in test [1] turned out to be 43.2%. For the same molecule, in test [2], the inhibition at 10 µM is 44.4% and the half-maximal inhibitory concentration (IC50) came out at 4970 nM.

On to `CC1CN(c2ncc(F)c(Nc3ccc4[nH]ncc4c3)n2)CCCN1` (stereo not shown) [Example 151, N-(5-fluoro-2-(3-methyl-1,4-diazepan-1-yl)pyrimidin-4-yl)-1H-indazol-5-amine], for which the inhibition at 1 µM in test [1] was 87.4%. Besides, the IC50 in test [1] (setting [3]) was 80 nM. Besides, the inhibition at 10 µM in test [2] was determined as 55.1%.

Regarding `CC1CCN(c2ncc(F)c(Nc3ccc4[nH]ncc4c3)n2)CCN1` (stereo not shown) [Example 152, N-(5-fluoro-2-(5-methyl-1,4-diazepan-1-yl)pyrimidin-4-yl)-1H-indazol-5-amine], in test [1], the inhibition at 1 µM turned out to be 77%. For the same molecule, in test [2], the inhibition at 10 µM stood at 50.7% and the half-maximal inhibitory concentration (IC50) was determined as 1030 nM.

Turning to `Fc1cnc(N2CCNC3(CC3)C2)nc1Nc1ccc2[nH]ncc2c1` [Example 153, N-(5-fluoro-2-(4,7-diazaspiro[2.5]octan-7-yl)pyrimidin-4-yl)-1H-indazol-5-amine], the half-inhibitory concentration (IC50) in test [1] (setting [3]) was found to be 556 nM. Moreover, the inhibition at 1 µM in test [2] was 23.8%.

Regarding `CC1CN(c2ncc(F)c(Nc3ccc4[nH]ncc4c3)n2)C(C)CN1` (stereo not shown) [Example 155, N-(2-(2,5-dimethylpiperazin-1-yl)-5-fluoropyrimidin-4-yl)-1H-indazol-5-amine], the inhibition at 1 µM is 82.1% in test [1] and 25% in test [2].

In the case of `Fc1cnc(N2CC3CC(C2)N3)nc1Nc1ccc2[nH]ncc2c1` [Example 157, N-(2-(3,6-diazabicyclo[3.1.1]heptan-3-yl)-5-fluoropyrimidin-4-yl)-1H-indazol-5-amine], in test [1] (setting [3]), the half-maximal inhibitory concentration (IC50) stood at 89 nM. For the same molecule, the inhibition at 1 µM in test [2] worked out at 27.2%.

For the molecule `Fc1cnc(N2CC3CNCC(C3)C2)nc1Nc1ccc2[nH]ncc2c1` [Example 167, N-(2-(3,7-diazabicyclo[3.3.1]nonan-3-yl)-5-fluoropyrimidin-4-yl)-1H-indazol-5-amine], the inhibition at 1 µM in test [1] came out at 88.2%; in test [2] it was 22.5%.

As to `Fc1cnc(N2CCN3CCNCC3C2)nc1Nc1ccc2[nH]ncc2c1` (stereo not shown) [Example 173, N-(5-fluoro-2-(octahydro-2H-pyrazino[1,2-a]pyrazin-2-yl)pyrimidin-4-yl)-1H-indazol-5-amine], the inhibition at 1 µM was found to be 17.6% in test [1] and 1.3% in test [2].

As to `Fc1cnc(N2CC3CNC3C2)nc1Nc1ccc2[nH]ncc2c1` (stereo not shown) [Example 174, N-(2-(3,6-diazabicyclo[3.2.0]heptan-3-yl)-5-fluoropyrimidin-4-yl)-1H-indazol-5-amine], in test [1], the IC50 amounted to 35 nM. In addition, the inhibition at 1 µM in test [2] came to 26.3%.

For the origin of these results see patent US11613531B2, “Inhibitors of RHO associated coiled-coil containing protein kinase” (Kadmon Corporation, LLC, priority 2017, dated 2023).
